US20140315972A1, “RS)-2-(2-oxo-4-phenylpyrrolidin-1-yl)acetamide compound having modulatory activity with a commensurate effect, pharmaceutical substance (variants) and its application, composition (variants) thereof” (priority 2011, published 2014)
Where two headings read alike, the source gives them in different places. Marks after values point to notes of the source that are not given here.

Legend:
mice [1] = test: Tremor caused by arecoline; format: in vivo; details: for Duration of tremor: mice, arecoline 25 mg/kg
Text: Studies have been conducted on white outbred male mice (18-24 g), in comparison with the olanzapine (Zyprexa) with intraperitoneal injection.

rats = test: Scopolamine-induced CRPA amnesia in rats 30-35 days of age; format: in vivo
Text: Phenotropil has a pronounced mnemotropic and nootropic activity. The results of the study of the antiamnestic activity (classical technique in the equipment manufactured by Lafayette Instrument Co, USA) in the retrograde amnesia of the passive avoidance conditional reflex (CRPA) induced by maximal electroshock (MES) and scopolamine in male rats (180-250 g) are shown in Table 7. […] Taking into account the studies using the open field and cross maze tests, the nootropic action component of the modulatory drug not only may be more pronounced, but is broader in manifestation depending on the type of disorder or in unfamiliar situational conditions. The pronounced nootropic activity of Phenotropil (100, 200, 300 mg/kg) also manifests in rat pups of both sexes 30-35 days of age (Table 7.1) after scopolamine-induced CRPA amnesia.
In studying immature animals, it must be considered that to generate CRPA it is required, as was established, to apply higher educational incentives (0.6 mA, 8 pulses vs 5 pulses at 0.45 mA in adult rats) with re-training (after 48 hours). Development of amnesia also requires a higher dose of scopolamine (1.3 mg/kg) in rat pups. […] Phenotropil has not only a psychomodulatory (Ψ-modulatory) activity but also a Ψ-operandmodulatory activity given that the mnemotropic effect is associated with the expression of specific proteins and genes involved in memory, attention and learning.

mice [2] = format: in vivo; details: for Mortality: mice
Description: Chemical convulsive agents (bicuculline, corazol, thiosemicarbazide, and picrotoxin) and the maximum electroconvulsive shock (ECS) model in the experiment the different types of seizures with their various implementation mechanisms of pathological conditions. The anticonvulsant activity of Phenotropil after a single dose for all the investigated models manifests in a pronounced positive effect on prevention of mortality in the studied doses of 100, 300, 400, 600 mg/kg. In case of bicuculline-induced seizures, mortality in the control group was 70.0%. Phenotropil (100, 300, 600 mg/kg) was effective in 100% of cases. The metrazole-induced mortality in the control was 60.0% and the positive effect of Phenotropil for mortality vs control was 45-35-0%, depending on the dose, respectively. The thiosemicarbazide-induced mortality was 90.0% in the control group, while when treated with Phenotropil (100, 300, 600 mg/kg), respectively: 60-0-0%. […] In case of MES, mortality in the control group was 100.0%, while in the Phenotropil groups (100, 300, 400 mg/kg) it was 20-0-0%, respectively. […] The anticonvulsant effect of Phenotropil prevents the development of seizures and affects the outcome of convulsive states, preventing mortality in all applied models of seizures in animals. The mechanisms of action of anticonvulsant activity of Phenotropil are probably also commensurate, various and depend on the initial state.

mice [3] = test: Hypobaric hypoxia in pressure chamber, adult mice; format: in vivo; details: for Duration of life: adult mice, hypobaric hypoxia
[4] = system: mycobacteria (MTB), strain H37Rv; test: Mycobacteria (MTB) culture growth in vitro; format: cell-based
Description: The presence of the proper anti-inflammatory effect in Phenotropil formed the basis for investigation of the effect of the drug on more complex pathological agents. The effect of different concentrations of Phenotropil on the mycobacteria (MTB) culture growth in vitro according to research standards (test culture—highly virulent laboratory strain H37Rv) was studied. A wide range of drug concentrations was prepared: 1 series—100, 50, 10 μg/ml, 2 series—from 10 to 0.31 μg/ml, and 3 series—from 2 to 0.031 μg/ml. To prepare the matrix solution, the sterile distilled water was used, and the Shkolnikova medium was used to prepare the said concentrations. To assess the growth and morphological properties of the MTB culture, suspended mycobacteria at appropriate concentrations of Phenotropil solution were inoculated on the Lowenstein-Jensen medium and Shkolnikova medium (4 tubes for each point). After 2 weeks, the presence of growth was determined visually in the Shkolnikova medium and smears from the sediment were prepared. The smears were fixed and stained according to Ziehl-Neelsen method. The number of mycobacteria in smears was counted and, based on the results obtained, the concentration of the drug at which the inhibition of the growth was observed was determined. The number of the MTB colonies and their morphological characteristics were evaluated on the Lowenstein-Jensen medium after four weeks from the time of inoculation. Registration of the results was also carried out four weeks after inoculation.

[5] = Body weight in obese rats, 1 month intragastric course; format: in vivo; details: for Body weight (%): change vs control (dist. water) = 100
Description: Investigation of the effect of Phenotropil on body weight at course intragastric administration for 1 month was performed at doses of 25, 50, 100, 200 and 300 mg/kg/day in white outbred rats of both sexes with obvious signs of obesity (380-430 g) without changes in diet and behavior. Each animal was placed in a standard single cell. The body weight, the amount of water and food consumed per day were recorded.

NC(=O)CN1CC(c2ccccc2)CC1=O (racemic) [Compound 1, (RS)-2-(2-oxo-4-phenylpyrrolidine-1-yl)acetamide]
reduction of duration of tremor (mice [1]; 200 mg/kg): 63%
reduction of duration of tremor (mice [1]; 300 mg/kg): 50%
Duration of tremor (mice [1]; 200 mg/kg): 153 ± 27 s
Duration of tremor (mice [1]; 300 mg/kg): 208 ± 36 s
LP1 (training) (rats; 100 mg/kg): 7.2 ± 2.8
LP2 (at 24 hours) (rats; 100 mg/kg): 25.2 ± 3.8
ΔLP (rats; 100 mg/kg): 18.0 ± 2.9
LP1 (training) (rats; 200 mg/kg): 11.0 ± 3.0
LP2 (at 24 hours) (rats; 200 mg/kg): 45.2 ± 7.3
ΔLP (rats; 200 mg/kg): 34.2 ± 9.0
LP1 (training) (rats; 300 mg/kg): 8.0 ± 3.0
LP2 (at 24 hours) (rats; 300 mg/kg): 82.4 ± 4.3
ΔLP (rats; 300 mg/kg): 74.4 ± 3.7
effective against mortality, % of cases (mice [2]; bicuculline-induced seizures, 100, 300, 600 mg/kg): 100%
Mortality (mice [2]; Bicuculline 3.0 mg/kg + 100.0 mg/kg): 0* %
Mortality (mice [2]; Bicuculline 3.0 mg/kg + 300.0 mg/kg): 0* %
Mortality (mice [2]; Corazol 110.0 mg/kg + 100.0 mg/kg, listed as Phenotropil): 45%
Mortality (mice [2]; Corazol 110.0 mg/kg + 300.0 mg/kg, listed as Phenotropil): 35%
Mortality (mice [2]; Corazol 110.0 mg/kg + 600.0 mg/kg, listed as Phenotropil): 0%
Mortality (mice [2]; MES + 100.0 mg/kg, listed as Phenotropil, 100 mg/kg): 20%
Mortality (mice [2]; MES + 300.0 mg/kg, listed as Phenotropil, 300 mg/kg): 0%
Mortality (mice [2]; MES + 400.0 mg/kg, listed as Phenotropil, 400 mg/kg): 0%
Mortality (mice [2]; Thiosemicarbazide 18.0 mg/kg + 100.0 mg/kg, listed as Phenotropil): 60%
Mortality (mice [2]; Thiosemicarbazide 18.0 mg/kg + 300.0 mg/kg, listed as Phenotropil): 0%
Mortality (mice [2]; Thiosemicarbazide 18.0 mg/kg + 600.0 mg/kg, listed as Phenotropil): 0%
increase of survival time vs control (mice [3]; 50 mg/kg): 65.0%
increase of survival time vs control (mice [3]; 100 mg/kg): 147.8%
increase of survival time vs control (mice [3]; 300 mg/kg): 591.0%
Duration of life (mice [3]; 50 mg/kg): 3.8 ± 0.5 min
Duration of life (mice [3]; 100 mg/kg): 5.7 ± 1.2 min
Duration of life (mice [3]; 300 mg/kg): 15.9 ± 0.4 min
Mean number of MTB colonies ([4]; 0.031 ug/ml): contiguous
Mean number of MTB colonies ([4]; 0.063 ug/ml): contiguous
Mean number of MTB colonies ([4]; 0.125 ug/ml): 107
Mean number of MTB colonies ([4]; 0.250 ug/ml): 97
Mean number of MTB colonies ([4]; 0.310 ug/ml): 83
Mean number of MTB colonies ([4]; 0.500 ug/ml): 70
Mean number of MTB colonies ([4]; 0.630 ug/ml): 65
Mean number of MTB colonies ([4]; 1.0 ug/ml): 67
Mean number of MTB colonies ([4]; 1.25 ug/ml): 74
Mean number of MTB colonies ([4]; 2.0 ug/ml): 79
Mean number of MTB colonies ([4]; 5.0 ug/ml): 90
Mean number of MTB colonies ([4]; 10.0 ug/ml): 123
Mean number of MTB colonies ([4]; 50.0 ug/ml): contiguous
Mean number of MTB colonies ([4]; 100 ug/ml): contiguous
number of MTB colonies ([4]; concentrations from 0.25 to 5.0 μg/ml): Less than 100
Body weight (%) ([5]; 25 mg/kg): −14.0%
reduction of body weight relative to control ([5]; 25 mg/kg/day i.g. 1 month): 14%
Body weight (%) ([5]; 50 mg/kg): −25.0 * %
reduction of body weight relative to control ([5]; 50 mg/kg/day i.g. 1 month): 25%
Body weight (%) ([5]; 100 mg/kg): −33.3 * %
reduction of body weight relative to control ([5]; 100 mg/kg/day i.g. 1 month): 33.3%
Body weight (%) ([5]; 200 mg/kg): −35.0 * %
reduction of body weight relative to control ([5]; 200 mg/kg/day i.g. 1 month): 35%
Body weight (%) ([5]; 300 mg/kg): −32.0 * %
reduction of body weight relative to control ([5]; 300 mg/kg/day i.g. 1 month): 32%
